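Grown in 96-well plates, cells were treated for 48 hours with each compound at five concentrations. Insufficient inhibition: endpoint recorded as highest concentration tested. Abbreviation: GI50, concentration required for 50% inhibition of growth.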 The source made the active and inactive calls. Rule as the data show it: active = GI50 up to about 1.1 µM and inactive = higher.
Tests used:
Assay in all cases: NCI anticancer screen, dose series, 48 h
786-0 = tested on: 786-0
A498 = tested on: A498
A549 = tested on: A549
ACHN = tested on: ACHN
BT-549 = tested on: BT-549
CAKI-1 = tested on: CAKI-1
CCRF-CEM = tested on: CCRF-CEM
COLO 205 = tested on: COLO 205
DU-145 = tested on: DU-145
EKVX = tested on: EKVX
HCT-116 = tested on: HCT-116
HCT-15 = tested on: HCT-15
HL-60 = tested on: HL-60
HOP-62 = tested on: HOP-62
HOP-92 = tested on: HOP-92
HT-29 = tested on: HT-29
Hs-578T = tested on: Hs-578T
IGROV-1 = tested on: IGROV-1
K562 = tested on: K562
LOX IMVI = tested on: LOX IMVI
M14 = tested on: M14
MCF7 = tested on: MCF7
MDA-MB-231 = tested on: MDA-MB-231
MDA-MB-435 = tested on: MDA-MB-435
MDA-N = tested on: MDA-N
MOLT-4 = tested on: MOLT-4
Malme-3M = tested on: Malme-3M
NCI-H226 = tested on: NCI-H226
NCI-H23 = tested on: NCI-H23
NCI-H522 = tested on: NCI-H522
NCI/ADR-RES = tested on: NCI/ADR-RES
OVCAR-3 = tested on: OVCAR-3
OVCAR-4 = tested on: OVCAR-4
OVCAR-5 = tested on: OVCAR-5
OVCAR-8 = tested on: OVCAR-8
PC-3 = tested on: PC-3
RPMI-8226 = tested on: RPMI-8226
RXF 393 = tested on: RXF 393
SF-268 = tested on: SF-268
SF-295 = tested on: SF-295
SF-539 = tested on: SF-539
SK-MEL-28 = tested on: SK-MEL-28
SK-MEL-2 = tested on: SK-MEL-2
SK-MEL-5 = tested on: SK-MEL-5
SK-OV-3 = tested on: SK-OV-3
SN12C = tested on: SN12C
SNB-19 = tested on: SNB-19
SNB-75 = tested on: SNB-75
SR = tested on: SR
T47D = tested on: T47D
TK-10 = tested on: TK-10
U-251 = tested on: U-251
UACC-257 = tested on: UACC-257
UACC-62 = tested on: UACC-62
UO-31 = tested on: UO-31

`CCC(=O)N(c1ccccc1)C(C)CN1CCC(O)(c2ccccc2)CC1` (stereo not given) was tested, and the GI50 (786-0) was > 100 µM (inactive), the GI50 (A498) was > 100 µM (inactive) and the GI50 (A549) was > 100 µM (inactive). For the same compound, the GI50 (ACHN) was > 100 µM (inactive), the GI50 (BT-549) was > 100 µM (inactive) and the GI50 (CAKI-1) was > 100 µM (inactive). The GI50 (CCRF-CEM) was > 100 µM (inactive), the GI50 (COLO 205) was > 100 µM (inactive) and the GI50 (DU-145) was > 100 µM (inactive). For the same compound, the GI50 (EKVX) was > 100 µM (inactive), the GI50 (HCT-116) was 80.9 µM (inactive) and the GI50 (HCT-15) was greater than 100 µM. For the same compound, the GI50 (HL-60) was > 100 µM (inactive), the GI50 (HOP-62) was > 100 µM (inactive) and the GI50 (HOP-92) was > 100 µM (inactive). For the same compound, the GI50 (HT-29) was 58.3 µM (inactive), the GI50 (Hs-578T) was > 100 µM (inactive) and the GI50 (IGROV-1) was > 100 µM (inactive). The GI50 (K562) was 74.1 µM (inactive), the GI50 (LOX IMVI) was > 100 µM (inactive) and the GI50 (M14) was > 100 µM (inactive). For the same compound, the GI50 (MCF7) was > 100 µM (inactive), the GI50 (MDA-MB-231) was > 100 µM (inactive) and the GI50 (MDA-MB-435) was > 100 µM (inactive). The GI50 (MDA-N) was > 100 µM (inactive), the GI50 (MOLT-4) was > 100 µM (inactive) and the GI50 (Malme-3M) was > 100 µM (inactive). The GI50 (NCI-H226) was > 100 µM (inactive), the GI50 (NCI-H23) was > 100 µM (inactive) and the GI50 (NCI-H522) was > 100 µM (inactive). For the same compound, the GI50 (NCI/ADR-RES) was > 100 µM (inactive), the GI50 (OVCAR-3) was > 100 µM (inactive) and the GI50 (OVCAR-4) was > 100 µM (inactive). For the same compound, the GI50 (OVCAR-5) was > 100 µM (inactive), the GI50 (OVCAR-8) was > 100 µM (inactive) and the GI50 (PC-3) was > 100 µM (inactive). The GI50 (RPMI-8226) was > 100 µM (inactive), the GI50 (RXF 393) was > 100 µM (inactive) and the GI50 (SF-268) was > 100 µM (inactive). For the same compound, the GI50 (SF-295) was > 100 µM (inactive), the GI50 (SF-539) was > 100 µM (inactive) and the GI50 (SK-MEL-28) was > 100 µM (inactive). For the same compound, the GI50 (SK-MEL-2) was > 100 µM (inactive), the GI50 (SK-MEL-5) was > 100 µM (inactive) and the GI50 (SK-OV-3) was > 100 µM (inactive). For the same compound, the GI50 (SN12C) was > 100 µM (inactive), the GI50 (SNB-19) was > 100 µM (inactive) and the GI50 (SNB-75) was > 100 µM (inactive). For the same compound, the GI50 (SR) was > 100 µM (inactive), the GI50 (T47D) was > 100 µM (inactive) and the GI50 (TK-10) was > 100 µM (inactive). The GI50 (U-251) was > 100 µM (inactive), the GI50 (UACC-257) was > 100 µM (inactive) and the GI50 (UACC-62) was > 100 µM (inactive). For the same compound, the GI50 (UO-31) was > 100 µM (inactive).

From ChEMBL document CHEMBL1201862, “PubChem BioAssay data set” (2004)
